Tests used:
[1] = test system: human dopaminergic neurons (iCell DopaNeurons); experiment: MPP+-induced neurotoxicity: neurite outgrowth (neurite length, branch points) of iCell DopaNeurons, Incucyte; assay type: cell-based; details: MPP+ 100 μM
Description: (§1) We conducted an in vitro study of the drugs in Table 1 to evaluate the neuroprotective effects of 44 conditions of treatment (Table 2, experiments 1-41; 51-53) against MPP+-induced neurodegeneration toxicity on human dopaminergic neurons (iCell® DopaNeurons: iPS cell-derived human midbrain floorplate dopaminergic neurons). Further combinations (Table 2, experiments 42-50 and Table 3) are also disclosed.
iCell DOPA neurons are neural floor plate-derived midbrain dopaminergic neurons generated from human induced pluripotent stem cells (iPSCs). Dopaminergic neurons, specifically those located in the floor plate-derived midbrain are implicated in neurological disorders such as Parkinson's disease, MSA and DLBD among others. Thus iCell DopaNeurons provide a highly relevant in vitro model to investigate these types of pathologies (42, 43). The iCellDopa neurons were supplied from FUJIFILM Cellular Dynamics.
(§2) Three different measurements were made in the experiments. 1. Neurite length in mm is a measure of increase in dendrite length of neurons. […] 2. neurite branching is measure of dendrite branching. […] 3. Cytolysis of the cells is a measure of cell death. […] Experimental conditions were measured relative to the results of healthy cells in the studies.
(§3) Procedure. iCell DOPA neurons were thawed and cultured following the provider's instructions in Brainphys medium+provided supplements+1% N2 supplement (Stemcell Technologies)+penicillin/streptomycin+Laminin. They were plated at 20000 cells per well of a 384 well plate (pre-coated with poly-D-lysine and Laminin) in 70 μL of growth medium. Cells were incubated at 37° C./5% CO2 in a humidified cell culture incubator. Half of the culture medium was changed twice a week.
(§4) MPP+-induced neurotoxicity: 24 hours after neuronal plating, half of the medium was removed and the test compounds were applied with MPP+ treatment, both concentrated at 4×, were added to the wells. For each condition, six aliquots were added, corresponding to columns A-F in Table 2. Except for the NT/NT row, in each row, either the compound indicated dissolved in its vehicle noted in Table 1 was added, or only a vehicle was added as indicated. Column F is an indicator of whether MPP+ was added. If not, only the medium was added.
(§5) For the evaluation of conditions 1-28, Neurite outgrowth was followed for subsequent 48 hours using an Incucyte Zoom platform with one phase contrast image every 4 hours, using a 20× objective. After 48 hours, the medium containing test compounds and MPP+ was removed and replaced by fresh medium containing a fluorescent cytolysis marker (red fluorescence) and a live cell marker (green fluorescence). For the evaluation of conditions 29-53, Neurite outgrowth was followed similarly for subsequent 72 hours after MPP+ was added.
Each condition 1-41 and 51-53 was repeated in 8 wells of a 384 well plate, that is, each test condition studied in Table 2 was repeated eight times. NT/NT were cells in the standard medium only. Control/NT are the cells in the vehicle (as described above), with and without MPP+.
Assay endpoints and data analysis. Phase contrast images were analyzed at each time point to determine the neurite length and number of branch points per mm^2. Kinetic data was plotted and kinetics were normalized by subtracting the value of the first data point (at time of treatment), allowing to measure changes in neurite outgrowth only from the onset of the treatment, starting at zero. Area Under Curve (AUC) of kinetic data was obtained and used for plotting compound's effects and perform statistical analyzes.
(§6) Statistical analysis. We used one-way ANOVA followed by Bonferroni's multiple comparisons test.

[2] = PD patients, small double-blind placebo controlled trial; cited from earlier work
[3] = test system: human dopaminergic neurons (iCell DopaNeurons); experiment: MPP+-induced neurotoxicity: cytolysis of iCell DopaNeurons; assay type: cell-based; details: MPP+ 100 μM; Table 8.2 (FIG. 7C); PCI 30 μM
Description: as §1, §2, §3, §4, §5
Data was normalized to control conditions as there is basal cytolysis in the cell culture after thawing.
Fluorescently immuno-stained cells were imaged on a high content imaging platform. Individual segmentation of cells was performed by image analysis of the MAP2 and NeuN staining. The number of neurons and the neurite length were measured. The percentage of cytolyzed cells was also calculated.
as §6

Cc1c(O)c(=O)ccn1C [DFP, Deferiprone]
Neurite Length Data, Mean ± S.D. ([1]; Table 5.1 (FIG. 5A), conditions 17-28, AUC of kinetic data): 874.5 ± 190.4 mm/mm^2 | Neurite Branching Data, Mean ± S.D. ([1]; Table 5.2 (FIG. 5B), conditions 17-28, AUC of kinetic data): 24282.5 ± 6612.9 per mm^2 | Neurite length, plate 2, Mean ± S.D. ([1]; Table 6.2 (FIG. 7A), followed 72 hours, PCI 30 μM): 1303.0 ± 378.7 mm/mm^2 | Neurite Branching Data, Plate 2, Mean ± S.D. ([1]; Table 7.2 (FIG. 7B), followed 72 hours, PCI 30 μM): 51711.3 ± 15178.4 per mm^2 | effects on neurite outgrowth ([1]; vs MPP+ alone): no significant effects | substantia nigra iron deposits (MRI) and motor scores of disease progression [2]: showed improvement | Cytolysis, %, Plate 2, Mean ± S.D. [3]: 71.91 ± 1.28%
